Experiments:
[1] = system: TYRP1 (+) human 624mel cells; experiment: Complement dependent cytotoxicity (CDC) assay; format: cell-based; conditions: for induction of CDC (in words): 624mel cells in vitro; for Human CDC (%): Table 4 summary, 624mel cells
Method: Wash human melanoma cell line 624mel 3 times and bring to a concentration of 10^6 viable cells/mL in a suitable media, such as AIM V Media (Invitrogen Life Technologies). […] Add low-Tox-M Rabbit complement (Cedarlane Labs, Westbury, N.Y.) diluted 1:5 in AIM V at 50 μl/well and incubate for 1 hr at 37° C. Count cells for viability with Trypan Blue (Invitrogen Life Technologies).

[2] = system: TYRP1 (+) human 624mel cells; experiment: Antibody dependent cellular cytotoxicity (ADCC) against human melanoma in vitro; format: cell-based; conditions: 624mel cells in vitro
Method: Collect and wash 624mel cells with a suitable media, such as AIM V media (Invitrogen Life Technologies) and plate the cells at a density of 10,000 cells /well in a 100 μL volume, in a 96-well Falcon U bottom plate. Add antibodies at 5 μg/mL in a 50 μL volume and incubate at 37° C. for 0.5 hr with target cells. Effector cells were added in a volume of 50 μL at various E:T (effector:target) ratios. Plates were further incubated for 4 hrs at 37° C. After incubation, plates were spun down at 800 g, and 100 μL of supernatants were gently transferred to 96 well flat bottom plates. Lactate dehydrogenase assay reagent was added as specified by the manufacturer (Roche) and plates were read at 490 nm. Controls in assay: Target Spontaneous and Target Maximum (by adding 50 μL of 4% triton).
Lysis is dependent on the effector to target concentration with lysis of 50% of target cells occurring at an E:T ratio of 100:1.

human SKmel23 cells = experiment: SKmel23 metastatic melanoma model (lung surface nodules); format: in vivo, nude mice; conditions: for reduced metastasis (percent inhibition of lung nodules): SKmel23 i.v., day 20
Method: (§1) For the following subcutaneous studies, tumor volumes are calculated by the formula [π/6(W1×W2×W2)], where W1 represents the largest tumor diameter and W2 represents the smallest tumor diameter. % T/C=100×(Treatment Volume/Initial Volume)/(Control Volume/Initial Volume). Statistical analysis is done using traditional p-value techniques. For the subcutaneous studies the p value is calculated based on the tumor volume of animals receiving the anti-TYPR antibody verses the tumor volume of the control animals. […] Statistical analysis is done using traditional p-value techniques. For the metastatic studies the p-value is calculated based on the nodules observed in the animals receiving the anti-TYPR antibody verses the nodules observed in the control animals.
(§2) B16BL6 is an aggressive and spontaneously arising murine melanoma. It forms lung metastases in nude mice after intravenous administration. Harvest, wash and resuspend cultured SKmel23 and B16BL6 cells melanoma cells in RPMI 1640 media (10% FBS heat inactivated).
(§3) Model 2: Inject 1×10^5 human SKmel23 cells intravenously. On the second day after the tumor injection, administer to mice anti-TYRP1 antibodies or control human IgG, according to two different dose concentrations (200 μg/mouse and 500 μg/mouse). Sacrifice mice on day 20, remove lungs, count lung surface nodules and calculate percent inhibition.
(§4) For the subcutaneous model, harvest, wash and resuspend cultured 624mel cells, in a 50/50 solution of Matrigel and RPMI 1640 media (10% FBS heat inactivated). Inject 2×10^6 624mel cells into the left flank of nude mice. When tumors reach 200 mm^3, treat mice with anti-TYRP1 antibodies, DTIC, or a combination of anti-TYRP1 antibodies and DTIC. Administer 40 mg/kg antibodies once per week. Administer DTIC 5 mg/kg once per week. Measure tumors with calipers twice a week and calculate % T/C. For metastatic model, harvest, wash and resuspend cultured SKmel23, 888mel and B16 melanoma cells, in RPMI 1640 media (10% FBS heat inactivated). Inject SKmel23, 888mel and B16 melanoma cells intravenously. On the second day after the tumor injection, administer to mice anti-TYRP1 antibodies or control human IgG. Sacrifice mice on day 20, remove lungs, count lung surface nodules and calculate percent inhibition.

Human FcR = Human FcR binding; conditions: Table 4 summary
624mel xenograft = experiment: 624mel subcutaneous xenograft model; format: in vivo, nude mice
Method: as §1
(§5) Harvest, wash and resuspend 624mel cultured cells in a 50/50 solution of Matrigel and RPMI 1640 media (10% FBS heat inactivated). For the subcutaneous tumor model, inject 2×10^6 cells subcutaneously into the left flank of nude mice. When tumors reach 200 mm^3, treat mice with anti-TYRP1 antibodies or control human IgG; administer antibodies 1 mg/mouse three times per week. Measure tumors with calipers twice a week and calculate % T/C. […] Tumor growth was inhibited and reached statistical significance at day 16 post initiation of antibody treatment (T/C=44%; P=0.01). […] Lysates of skins from different species are incubated with TA99 (5 μg/ml) for 2 hours at room temperature. The lysates are then precipitated with protein A and subjected to SDS-PAGE under reducing and non-reducing conditions using […]. After electrophoresis, the gels are transferred to PVDF membrane (Invitrogen Life Technologies). […] The blot is developed using a chemiluminescent substrate (KPL, Gaithersburg, Md.).
For the subcutaneous tumor model, harvest, wash and resuspend 624mel cultured cells in a 50/50 solution of Matrigel and RPMI 1640 media (10% FBS heat inactivated), then inject 2×10^6 624mel cells subcutaneously into the left flank of nude mice. […] Measure tumors with calipers twice a week and calculate % T/C. […]

SKmel28 xenografts = experiment: SKmel28 subcutaneous xenograft model; format: in vivo, nude mice
Method: as §1, §5
Mix Skmel28 cells in a 50/50 solution of Matrigel and RPMI 1640 media (10% FBS heat inactivated). Inject 2×10^6 cells subcutaneously into the left flank of nude mice. When tumors reach 200 mm^3, treat mice with anti-TYRP1 antibodies (6 mg/kg, 20 mg/kg, or 60 mg/kg) or control human IgG three times per week. Measure tumors with calipers twice a week and calculate % T/C. […] The anti-tumor effects at each dose were statistically significant: […] (T/C=50%; P=0.04), […] (T/C=19%; P<0.003).

B16BL6 murine melanoma = experiment: B16BL6 metastatic melanoma model (lung surface nodules); format: in vivo, nude mice; conditions: for Inhibition of lung metastases: B16BL6 i.v., day 20
Method: as §1, §2
as §3, with “1:” for “2:”, “B16BL6” for “human SKmel23”, “three” for “two”, “μg/mouse, 500 μg/mouse,” for “μg/mouse”, “1 mg/mouse).” for “500 μg/mouse).”
as §4

888mel cells = experiment: 888mel metastatic melanoma model (lung surface nodules); format: in vivo, nude mice
Method: as §1
For the metastatic model, harvest, wash and resuspend 888mel cultured cells in RPMI 1640 media (10% FBS heat inactivated), inject 888mel cells intravenously. On the second day after the tumor injection, administer to mice anti-TYRP1 antibodies or control human IgG. Sacrifice mice on day 20, remove lungs, count lung surface nodules and calculate percent inhibition.
For the subcutaneous model, harvest, wash and resuspend cultured 624mel cells, in a 50/50 solution of Matrigel and RPMI 1640 media (10% FBS heat inactivated). Inject 2×10^6 624mel cells into the left flank of nude mice. […]

Substance: CTA99: chimeric anti-TYRP1 antibody with TA99 variable regions and human constant region IgG1; SEQ ID NO 31 and 33
- induction of CDC (in words) [1]: induce CDC
- Human CDC (%) [1]: 94%
- CDC percentage of cytotoxicity ([1]; antibody concentration 0.05 μg/mL): 9.5%
- CDC percentage of cytotoxicity ([1]; antibody concentration 0.41 μg/mL): 53%
- CDC percentage of cytotoxicity ([1]; antibody concentration 1.23 μg/mL): 54%
- CDC percentage of cytotoxicity ([1]; antibody concentration 3.7 μg/mL): 95%
- induction of ADCC (in words) [2]: induce ADCC
- reduced metastasis (percent inhibition of lung nodules) (human SKmel23 cells; 200 μg/dose): 63%
- reduced metastasis (percent inhibition of lung nodules) (human SKmel23 cells; 500 μg/dose): 75%

Substance: 20D7: recombinant human monoclonal antibody, full length IgG1κ targeting TYRP1; heavy chain SEQ ID NO 29, light chain SEQ ID NO 32 [Antibody 20D7]
- Human FcR binding (Human FcR): 110 pM
- induction of CDC (in words) [1]: induce CDC
- Human CDC (%) [1]: 100%
- complement-mediated cell lysis (in words) ([1]; antibody concentration of 3.7 μg/mL): complete cell lysis
- induction of ADCC (in words) [2]: induce ADCC
- T/C (624mel xenograft; 624mel subcutaneous xenograft, 40 mg/kg twice per week): 21%
- % T/C (624mel xenograft; Table 9, Subcutaneous, 624mel, antibody 40 mg/kg once per week, DTIC 5 mg/kg once per week): 50%
- T/C (624mel xenograft; established 624mel tumors, 1 mg/mouse three times per week, day 16 post initiation of antibody treatment): 44%
- T/C (SKmel28 xenografts; SKmel28 dose response, 6 mg/kg three times per week): 69%
- T/C (SKmel28 xenografts; SKmel28 dose response, printed as 6 mg/kg and 20 mg/kg, three times per week): 50%
- T/C (SKmel28 xenografts; SKmel28 dose response, printed as 6 mg/kg and 60 mg/kg, three times per week): 19%
- T/C (SKmel28 xenografts; SKmel28 xenografts, vs human IgG control, day 43): 51%
- Inhibition of lung metastases (B16BL6 murine melanoma; 200 μg/mouse): 65%
- Inhibition of lung metastases (B16BL6 murine melanoma; 500 μg/mouse): 74%
- Inhibition of lung metastases (B16BL6 murine melanoma; 1 mg/mouse): 95%
- % inhibition (B16BL6 murine melanoma; Table 9, Metastatic, B16): 95%
- reduced metastasis (percent inhibition of lung nodules) (human SKmel23 cells; 200 μg/dose): 58%
- reduced metastasis (percent inhibition of lung nodules) (human SKmel23 cells; 500 μg/dose): 73%
- % inhibition (human SKmel23 cells; Table 9, Metastatic, SKmel23): 80%
- inhibition of lung surface metastasis (888mel cells; 888mel i.v. in nude mice, day 20): 77%
- % inhibition (888mel cells; Table 9, Metastatic, 888 mel): 77%

Reference: patent US7951370B2, “Anti-TYRP1 antibodies” (ImClone LLC, priority 2008, dated 2011)
